Reference: article PMC10254045, “Elaboration of the Effective Multi-Target Therapeutic Platform for the Treatment of Alzheimer’s Disease Based on Novel Monoterpene-Derived Hydroxamic Acids” (International Journal of Molecular Sciences, 2023)

Legend:
HDAC6 = target: T1, HDAC6 (Homo sapiens, UniProt Q9UBN7); assay: Fluorimetric measurement of HDAC6 activity (FLUOR DE LYS kit); assay type: biochemical; details: Table 1; read-out: HDAC6-Inhibitory Effect, IC50
T1 construct: purchased Enzo Life Sciences
T1 sequence (Q9UBN7 1-1215): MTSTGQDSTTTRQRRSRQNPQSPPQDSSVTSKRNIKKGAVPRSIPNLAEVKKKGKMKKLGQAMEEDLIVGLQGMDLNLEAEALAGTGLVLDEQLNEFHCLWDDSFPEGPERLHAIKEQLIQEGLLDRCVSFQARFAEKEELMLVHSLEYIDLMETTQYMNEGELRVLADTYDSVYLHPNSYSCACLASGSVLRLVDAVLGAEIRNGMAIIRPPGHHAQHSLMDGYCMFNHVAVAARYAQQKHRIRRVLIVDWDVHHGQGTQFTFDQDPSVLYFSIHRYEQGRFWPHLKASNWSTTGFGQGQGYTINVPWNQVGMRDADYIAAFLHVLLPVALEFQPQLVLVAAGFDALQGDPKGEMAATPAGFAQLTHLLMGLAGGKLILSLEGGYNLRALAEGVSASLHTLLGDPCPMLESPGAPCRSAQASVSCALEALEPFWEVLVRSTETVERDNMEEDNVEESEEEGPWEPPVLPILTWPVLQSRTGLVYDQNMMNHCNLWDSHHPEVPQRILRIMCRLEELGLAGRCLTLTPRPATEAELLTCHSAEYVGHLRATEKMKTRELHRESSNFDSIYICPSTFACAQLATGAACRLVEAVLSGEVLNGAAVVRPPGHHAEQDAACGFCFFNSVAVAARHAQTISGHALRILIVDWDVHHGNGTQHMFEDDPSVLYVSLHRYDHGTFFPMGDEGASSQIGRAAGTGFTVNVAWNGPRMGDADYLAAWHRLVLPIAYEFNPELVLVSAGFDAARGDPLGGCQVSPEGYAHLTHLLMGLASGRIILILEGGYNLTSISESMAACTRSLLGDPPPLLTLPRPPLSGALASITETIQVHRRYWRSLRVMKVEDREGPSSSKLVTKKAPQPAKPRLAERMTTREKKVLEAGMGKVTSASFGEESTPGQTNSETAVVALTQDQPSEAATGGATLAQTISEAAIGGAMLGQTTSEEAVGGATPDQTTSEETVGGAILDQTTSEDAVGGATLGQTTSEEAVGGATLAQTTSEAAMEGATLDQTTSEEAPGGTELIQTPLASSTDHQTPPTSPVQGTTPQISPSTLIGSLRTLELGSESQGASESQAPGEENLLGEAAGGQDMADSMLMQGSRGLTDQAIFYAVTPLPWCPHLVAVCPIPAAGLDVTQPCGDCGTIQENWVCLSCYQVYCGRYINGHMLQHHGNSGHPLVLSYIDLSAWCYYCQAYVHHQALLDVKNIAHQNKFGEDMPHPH

5xFAD transgenic mice = assay: Morris Water Maze test in 5xFAD transgenic mice; assay type: in vivo; details: 5xFAD mice; for Latency to platform: 15 mg/kg intraperitoneal
Text: (§1) As part of the in vivo testing of the biological activity of the leader compound, a transgenic mouse model with Alzheimer’s disease 5xFAD at the age of 13 months was used. This line expresses two human genes: APP (amyloid peptide precursor protein gene) with three types of mutations (Swedish (K670N, M671L), Florida (I716V) and London (V717I)), as well as the presenilin 1 gene with mutations (M146L and L286V) characteristic of this disease. Clinically healthy wildtype single-litter mice C57Bl6/j (n = 8) were used as a control group. Transgenic 5xFAD mice were randomly divided into two groups: (1) animals receiving intraperitoneal injections of hydroxamic acid 35a at a dose of 15 mg/kg (10% DMSO + NaCl) for three weeks—the 5xFAD + 35a group (n = 8) and (2) mice receiving an equivalent volume of solvent—the group 5xFAD (n = 8). All animals were kept in standard vivarium conditions at a temperature of 22 ± 1 °C and a humidity of 55% indoors with a 12-h light–dark cycle. The animals had no restrictions in the consumption of water and food. The study of the neurobehavioral profile was started on the 15th day of the experiment.
The Morris Water Maze test was performed for five consecutive days to assess the formation of spatial learning and memory dependent on the hippocampus.
The installation consisted of a pool (Open Science, Moscow, Russia) with a diameter of 150 cm, filled to a depth of 40 cm with water (22 ± 1 °C). The lighting conditions were as follows: the dark side of the pool—50 lux; the light side—75 lux. […]
Testing was carried out according to a standard protocol, where for the first four days mice were placed in a pool with a platform hidden under water (1.5 cm below the water surface) in one of the quadrants of the pool. […] To do this, the animals were placed in the pool for 90 s and a number of indicators of the neurobehavioral profile were recorded.
All experimental attempts in the Morris water maze were recorded on a camera capturing video images from above the pool, which were processed using EthoVision software.

[1] = test system: 5xFAD transgenic mice brain mitochondria; assay: Mitochondrial oxygen consumption rate of brain p2 fraction (Seahorse); assay type: in vivo; details: p2 fraction of 5xFAD mice treated for three weeks, vs 5xFAD
Text: as §1, with “All animals were kept in standard vivarium conditions at a temperature of 22 ± 1 °C and a humidity of 55% indoors with a 12-h light–dark cycle. The animals had no restrictions in the consumption of water and food. The study of the neurobehavioral profile was started on the 15th day of the experiment.” left out
The analysis of the work of the complexes of the electron transport chain of mitochondria was carried out on the mitochondrial p2 fraction obtained from brain samples of animals of experimental groups. Mitochondrial respiration was determined by the rate of oxygen consumption by organelles using the Seahorse XFe96 cell metabolism analyzer (Seahorse Bioscience, North Billerica, MA, USA), in full compliance with the protocol described in [169].

## C=C(C)[C@@H]1CC=C(CNC(=O)/C=C/c2ccc(C(=O)NO)cc2)CC1 [Compound 35a, (S,E)-N-hydroxy-4-(3-oxo-3-(((4-(prop-1-en-2-yl)cyclohex-1-en-1-yl)methyl)amino)prop-1-en-1-yl)benzamide]
HDAC6
  IC50: 3.85 ± 0.24 µM
5xFAD transgenic mice; first day of training
  Latency to platform: 55.70 ± 2.10 s
5xFAD transgenic mice; fourth day of training, p = 0.039 vs day 1
  Latency to platform: 40.93 ± 5.47 s
5xFAD transgenic mice; 15 mg/kg, fifth day, p = 0.203 vs C57Bl6/j
  number of entrances to the target quadrant, Probe trial: same number of entrances to the target quadrant of the maze was found with the control group
[1]; p < 0.0001
  activity of complex IV (oxygen consumption rate), increase: 177.57%
[1]; p = 0.0025
  activity of complex II (oxygen consumption rate), increase: 57.30%
other
  melting point: 179.9 °C
